# Results published in patent US5639735A, “Antitumor antibiotic compounds: hayumicins and analogs thereof” (Bristol-Myers Squibb Company, priority 1994, dated 1997).
# Columns and labels:
# Streptococcus pyogenes = assay: Agar dilution MIC; type: cell-based; conditions: A No. 9604, 37° C., 18 hours
# Experimental: (§1) The following methodology was used to determine the minimum inhibitory concentration (hereinafter referred to as the "MIC") of the compounds of this invention. The test organisms were grown in 20 mL of Antibiotic Assay Broth (Difco) by inoculating the broth (in tubes) with a loopful of the organism from a BHI (Difco) agar slant. The inoculated tubes were incubated at 37° C. for 18 to 24 hours. These cultures were assumed to contain 10^9 colony forming units (CFU) per mL. The cultures were diluted 1:100 to give a final inoculum level of 10^7 CFU per mL; dilutions were made with Yeast Beef Broth (Difco). The antibiotics Hayumicin A and Hayumicin B of the present invention were dissolved in suitable diluents at a concentration of 1000 μg/mL. Two-fold dilutions were made in Yeast Beef Broth (Difco), resulting in a range from 1000 μg/mL to 0.5 μg/mL. A 1.5 mL portion of each dilution was placed into individual petri dishes to which 13.5 mL of K-10 agar was added. The composition of K-10 agar is:
# (§2) The final drug concentration in agar of Hayumicin A or Hayumicin B ranged from […] to 0.05 μg/mL. Organism growth control plates containing agar only were prepared and inoculated before and after the test plates. The organisms were applied to the surface of each plate so that each contained a final inoculum of 10^5 CFU. The plates were incubated at 37° C. for 18 hours and the MICs determined. The MIC is the lowest concentration of compound inhibiting growth of the organism.
# Proteus mirabilis = assay: Agar dilution MIC; type: cell-based; conditions: A No. 9900, 37° C., 18 hours
# Experimental: as §1, §2
# Bacillus subtilis = assay: Agar dilution MIC; type: cell-based; conditions: A No. 9506A, 37° C., 18 hours
# Experimental: as §1, §2
# Klebsiella oxytoca = assay: Agar dilution MIC; type: cell-based; conditions: A No. 203454, 37° C., 18 hours
# Experimental: as §1, §2
# Escherichia coli = assay: Agar dilution MIC; type: cell-based; conditions: 18 h
# Experimental: as §1, §2
# Pseudomanas aeruginosa = assay: Agar dilution MIC; type: cell-based; conditions: A No. 21508, 37° C., 18 hours
# Experimental: as §1, §2
# Staphylococcus aureus = assay: Agar dilution MIC; type: cell-based; conditions: 18 h
# Experimental: as §1, §2
# Streptococcus agalactiae = assay: Agar dilution MIC; type: cell-based; conditions: A No. 22567, 37° C., 18 hours
# Experimental: as §1, §2
# Klebsiella pneumoniae = assay: Agar dilution MIC; type: cell-based; conditions: A No. 9664, 37° C., 18 hours
# Experimental: as §1, §2
# Streptococcus pneumoniae = assay: Agar dilution MIC; type: cell-based; conditions: A No. 9585, 37° C., 18 hours
# Experimental: as §1, §2
# Micrococcus luteus = assay: Agar dilution MIC; type: cell-based; conditions: A No. 9852, 37° C., 18 hours
# Experimental: as §1, §2
# [1] = system: bacteria (especially gram positive bacteria); assay: Antibiotic activity (general statement); type: cell-based; conditions: inhibiting the growth of bacteria
# tumors = assay: Antitumor activity (general statement); conditions: no test described
SMILES,solubility in chloroform (Solubility),solubility in dimethylsulfoxide (Solubility),solubility in methanol (Solubility),solubility in n-hexane (Solubility),solubility in pyridine (Solubility),solubility in water (Solubility),MIC (Streptococcus pyogenes),MIC (Proteus mirabilis),MIC (Bacillus subtilis),MIC (Klebsiella oxytoca),"MIC (Escherichia coli; A No. 20697, 37° C.)","MIC (Escherichia coli; A No. 22292, 37° C.)","MIC (Escherichia coli; A No. 28290, 37° C.)",MIC (Pseudomanas aeruginosa),"MIC (Staphylococcus aureus; A No. 9537, 37° C.)","MIC (Staphylococcus aureus; A No. 9606, 37° C.)","MIC (Staphylococcus aureus; A No. 24227, 37° C.)",antibiotic activity [1],antitumor activity (tumors),solubility in ether (Solubility),further results
"CO[C@@H]1[C@@H](O)[C@@H](O[C@H]2[C@H](Oc3cccc4c(=O)c5c(O)c(=O)c6ccc(C)c7c(=O)oc(c-5c67)c34)O[C@H](C)[C@H](O)[C@@H]2O)O[C@H](C)[C@@H]1OC [Hayumicin A, 10-[[6-deoxy-2-O-(6-deoxy-3,4-di-O-methyl-α-D-galactopyranosyl)-β-D -galactopyranosyl]oxy]-5-hydroxy-1-methyl-4H -benzo[h]naphtho[8,1,2-cde][1]benzopyran-4,6,12-trione]",slightly soluble,readily soluble,slightly soluble,insoluble,readily soluble,insoluble,8 µg/mL,> 128 µg/mL,32 µg/mL,> 128 µg/mL,> 128 µg/mL,16 µg/mL,> 128 µg/mL,> 128 µg/mL,64 µg/mL,128 µg/mL,128 µg/mL,possess antibiotic activity,antitumor activity,–,MIC (Streptococcus agalactiae): 8 µg/mL; MIC (Klebsiella pneumoniae): > 128 µg/mL; MIC (Streptococcus pneumoniae): 16 µg/mL; MIC (Micrococcus luteus): 1 µg/mL
"CO[C@@H]1[C@@H](O)[C@@H](O[C@H]2[C@H](Oc3cccc4c(=O)c5c(N)c(=O)c6ccc(C)c7c(=O)oc(c-5c67)c34)O[C@H](C)[C@H](O)[C@@H]2O)O[C@H](C)[C@@H]1OC [Hayumicin B, 5-amino-10-[[6-deoxy-2-O -(6-deoxy-3,4-di-O-methyl-α-D-galactopyranosyl)-β-D -galactopyranosyl]oxy]-1-methyl-4H -benzo[h]naphtho[8,1,2-cde][1]benzopyran-4,6,12-trione]",slightly soluble,readily soluble,slightly soluble,insoluble,readily soluble,insoluble,8 µg/mL,> 128 µg/mL,4 µg/mL,> 128 µg/mL,> 128 µg/mL,128 µg/mL,> 128 µg/mL,> 128 µg/mL,64 µg/mL,128 µg/mL,128 µg/mL,possess antibiotic activity,antitumor activity,–,MIC (Streptococcus agalactiae): 8 µg/mL; MIC (Klebsiella pneumoniae): > 128 µg/mL; MIC (Streptococcus pneumoniae): 8 µg/mL; MIC (Micrococcus luteus): 1 µg/mL
"CO[C@@H]1[C@H](O)[C@@H](O)[C@@H](O[C@H]2[C@H](Oc3cccc4c(=O)c5c(N)c(=O)c6ccc(C)c7c(=O)oc(c-5c67)c34)O[C@H](C)[C@H](O)[C@@H]2O)O[C@@H]1C [Hayumicin C1, 5-amino-10-[[6-deoxy-2-O -(6-deoxy-4-O-methyl-α-D-galactopyranosyl)-β-D -galactopyranosyl]oxy]-1-methyl-4H -benzo[h]naphtho[8,1,2-cde][1]benzopyran-4,6,12-trione]",slightly soluble,soluble,slightly soluble,practically insoluble,soluble,practically insoluble,–,–,–,–,–,–,–,–,–,–,–,possess antibiotic activity,antitumor activity,practically insoluble,–
"CO[C@H]1[C@@H](O)[C@@H](C)O[C@H](O[C@H]2[C@H](Oc3cccc4c(=O)c5c(N)c(=O)c6ccc(C)c7c(=O)oc(c-5c67)c34)O[C@H](C)[C@H](O)[C@@H]2O)[C@@H]1O [Hayumicin C2, B-amino-10-[[6-deoxy-2-O -(6-deoxy-3-O-methyl-α-D-galactopyranosyl)-β-D -galactopyranosyl]oxy]-1-methyl-4H -benzo[h]naphtho[8,1,2-cde][1]benzopyran-4,6,12-trione]",slightly soluble,soluble,slightly soluble,practically insoluble,soluble,practically insoluble,–,–,–,–,–,–,–,–,–,–,–,possess antibiotic activity,antitumor activity,practically insoluble,–
"Cc1ccc2c(=O)c(N)c3c(=O)c4cccc(O[C@@H]5O[C@H](C)[C@H](O)[C@H](O)[C@H]5O[C@H]5O[C@H](C)[C@H](O)[C@H](O)[C@H]5O)c4c4oc(=O)c1c2c4-3 [Hayumicin D, 5-amino-10-[[6-deoxy-2-O -(6-deoxy-α-D-galactopyranosyl)-β-D -galactopyranosyl]oxy]-1-methyl-4H -benzo[h]naphtho[8,1,2-cde][1]benzopyran-4,6,12-trione]",slightly soluble,soluble,slightly soluble,practically insoluble,soluble,practically insoluble,–,–,–,–,–,–,–,–,–,–,–,possess antibiotic activity,antitumor activity,practically insoluble,–
